Target: T1, human GnRH receptor (Homo sapiens, UniProt P30968)
T1 construct: The cDNA for the human GnRH receptor is cloned into the plasmid expression vector, pcDNA 3; expressed in transfected cells; host or cells: HEK 293 cells, stably transfected (pcDNA 3); membrane preparation
T1 sequence (P30968 1-328): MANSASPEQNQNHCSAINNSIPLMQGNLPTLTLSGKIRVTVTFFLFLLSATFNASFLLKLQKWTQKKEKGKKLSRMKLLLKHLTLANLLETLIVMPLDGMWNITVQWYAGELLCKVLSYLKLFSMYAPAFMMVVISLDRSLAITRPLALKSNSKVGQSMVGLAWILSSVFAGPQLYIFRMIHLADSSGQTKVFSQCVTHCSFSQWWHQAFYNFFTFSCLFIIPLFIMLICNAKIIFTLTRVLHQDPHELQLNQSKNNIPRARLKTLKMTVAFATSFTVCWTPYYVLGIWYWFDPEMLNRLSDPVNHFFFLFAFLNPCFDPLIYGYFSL
Assay: GnRH receptor competitive radioligand binding assay (125I-GnRH-A, HEK 293 cell membranes)
Conditions: compound at 10 μM; average of 1st and 2nd test; read-out: Average % Remaining (percent of specific binding remaining)
Text: The cDNA for the human GnRH receptor is cloned into the plasmid expression vector, pcDNA 3 (In Vitrogen), and stably transfected in HEK 293 cells (a cell line developed by Dr. Stuart Sealfon, Mount Sinai Medical School, New York, N.Y.).
The human GnRH receptor (hGnRH) is cloned into pcDNA 3 (In Vitrogen), which provides high-level expression and a neomycin resistance marker. Lipofectamine (GIBCO BRL) is used to transfect HEK 293 cells with plasmid DNA. This method involves mixing the plasmid and reagent in serum-free medium, allowing DNA-liposome complexes to form, and overlaying cells with this solution. The HEK 293 cells are plated (seeded) on a 10-cm tissue culture dish at a density of 3×10^6 cells/dish the day before transfection. For each plate, 8 μg DNA plus 0.8 mL serum-free medium is mixed with 48 μL lipofectamine plus 0.8 mL serum-free medium, followed by incubation for 30 minutes at room temperature to allow DNA-liposome complexes to form. Serum-free medium is added to give a final volume of 6 mL/plate. The cells are rinsed twice with serum-free medium and overlayed with the DNA-liposome mixture. Five hours after transfection, an equal volume (6 mL) of medium containing 20% FBS (fetal bovine serum) is added. The cells are fed with fresh complete medium 18-24 hours after transfection. The cells are split 72 hours following transfection, at densities of 1:10 and 1:20. Stable tranformants are selected for by growth of the cells in antibiotic containing medium (G418, Sigma Chemical Company (also known as Geneticin)). Colonies are isolated and tested for receptor expression by radioligand binding and by measuring phosphoinositol turnover.
HEK 293 cells stably transfected with human GnRH receptors as described above are grown in MEM (minimal essential medium, available from Sigma Chemical Company) supplemented with 0.1% G418 (Sigma Chemical Company). Cells are homogenized in buffer A containing 50 mM Tris (pH 74.), 0.32M sucrose, 2 mM ethyleneglycol-bis(β-aminoethyl)-N,N,N′,N′-tetraacetic acid (EGTA), 1 mM phenylmethylsulfonyl fluoride (PMSF), 5 μg/mL aprotinen, 5 μg/mL Pepstatin A, and 1 μg/mL leupeptin. The homogenized cells are centrifuged at 4° C. at 20,000×g for 25 minutes, resuspended in buffer A, and recentrifuged at 4° C. at 20,000×g for an additional 25 minutes. Total membrane protein is determined with a BCA kit (Pierce, Rockford, Ill.). Membranes are stored at −70° C. at a final membrane protein concentration of 5 mg/mL.
The radioiodinated agonist analog of GnRH, [des-Gly^10, D-Ala^8]GnRH ethylamide (GnRH-A), is used as the labeled ligand. One μg of GnRH-A diluted in 0.1M acetic acid is added to an lodogen®-coated borosilicate glass tube pierce) containing 35 μL of 0.05M phosphate buffer (pH 7.4-7.6) and 1 mCi of Na[^125I]. The reaction mixture is vortexed and incubated for 1 minute at room temperature. After one minute, the mixture is vortexed again and allowed to incubate for an additional minute. Two mL of 0.5M acetic acid/1% BSA is added to the reaction tube, and the mixture is added to a C18 Sep-Pak cartridge. The cartridge is washed with subsequent washes of 5 mL H2O and 5 mL 0.5M acetic acid, and then eluted with 5×1 mL of 60% CH3CN/40% 0.5M acetic acid. The eluant is diluted with 3×volume of HPLC buffer A (0.1% TFA in H2O) and loaded onto a C18 column. The iodinated product is eluted over 20-25 minutes with a gradient of 25-100% CH3CN containing 0.1% TFA. The radioactive fractions (750 μL/fraction) are collected into clean polypropylene tubes containing 10 μL of 10% BSA. Fractions are assessed for biological activity by radioligand binding. Active fractions are utilized to screen the compounds for competitive binding assays.
HEK 293 cell membranes stably expressing hGnRHR (human GnRH receptors) are diluted to 0.5-1.0 mg/mL with assay buffer containing 50 mM HEPES (pH 7.4), 1 mM ethylenediarninetetraacetic acid (EDTA), 2.5 mM MgCl2, and 0.1% BSA. […]

| SMILES | remaining activity at 10 µM [%] |
| --- | --- |
| CCCCN(CCCC)c1ccc(CN(CC2CCC(CNC(=N)N)CC2)C(=O)c2ccco2)cc1 (stereo not drawn) [Compound 88] | 57 |
| N=C(N)NCCCCN(CC12CC=CCC1C1CC=CCC1O2)C(=O)c1cccc2ccccc12 (stereo not drawn) [Compound 25] | 46 |
| CN(C)CCCOc1ccc(CN(Cc2cccc(CNC(=N)N)c2)C(=O)c2ccc3ccccc3c2)cc1 [Compound 36] | 58 |
| Cc1cc2c(cc1CN(CC1CCC(CNC(=N)N)CC1)C(=O)c1ccc(Cl)nc1)C(C)(C)CCC2(C)C (stereo not drawn) [Compound 84] | 48 |
| Cc1cc2c(cc1CN(CC1CCC(CNC(=N)N)CC1)C(=O)C1CCCC1)C(C)(C)CCC2(C)C (stereo not drawn) [Compound 85] | 51 |
| Cc1cc2c(cc1CN(CCCCNC(=N)N)C(=O)c1ccccc1)C(C)(C)CCC2(C)C [Compound 31] | 45 |
| N=C(N)NCc1ccc(CN(CC23CC=CCC2C2CC=CCC2O3)C(=O)c2cccs2)cc1 (stereo not drawn) [Compound 6] | 46 |
| CC(C)(C)c1ccc(CN(CC2CCCC(CNC(=N)N)C2)C(=O)c2ccc3ccccc3c2)cc1 (stereo not drawn) [Compound 42] | 58 |
| COC(=O)CCCCCC(=O)N(Cc1cc2c(cc1C)C(C)(C)CCC2(C)C)CC1CCC(CNC(=N)N)CC1 (stereo not drawn) [Compound 100] | 55 |
| CC(=O)N(Cc1cc2c(cc1C)C(C)(C)CCC2(C)C)CC1CCCC(CNC(=N)N)C1 (stereo not drawn) [Compound 57] | 55 |
| N=C(N)NCC1CCCC(CN(Cc2ccc(OCc3ccccc3)c(OCc3ccccc3)c2)C(=O)c2ccc(Cl)nc2)C1 (stereo not drawn) [Compound 64] | 49 |
| Cc1cc2c(cc1CN(Cc1ccc(CNC(=N)N)cc1)C(=O)C1CCCCC1)C(C)(C)CCC2(C)C [Compound 10] | 53 |
| CC(C)(C)c1ccc(CN(CC2CCCC(CNC(=N)N)C2)C(=O)c2cccc3ccccc23)cc1 (stereo not drawn) [Compound 41] | 45 |
| Cc1cc2c(cc1CN(CCCCNC(=N)N)C(=O)C1CCCCC1)C(C)(C)CCC2(C)C [Compound 27] | 59 |
| N=C(N)NCc1cccc(CN(CC23CC=CCC2C2CC=CCC2O3)C(=O)C2CCCCC2)c1 (stereo not drawn) [Compound 37] | 60 |

Same assay, conditions: compound at 10 μM; crude compounds; 125I-GnRH-A; lower value = higher inhibition; read-out: % Remaining 1st Test (percent of specific binding remaining)

| SMILES | remaining activity at 10 µM [%] |
| --- | --- |
| CCCCN(CCCC)c1ccc(CN(CC2CCC(CNC(=N)N)CC2)C(=O)c2ccco2)cc1 (stereo not drawn) [Compound 88] | 58 |
| N=C(N)NCCCCN(CC12CC=CCC1C1CC=CCC1O2)C(=O)c1cccc2ccccc12 (stereo not drawn) [Compound 25] | 41 |
| CN(C)CCCOc1ccc(CN(Cc2cccc(CNC(=N)N)c2)C(=O)c2ccc3ccccc3c2)cc1 [Compound 36] | 56 |
| Cc1cc2c(cc1CN(CC1CCC(CNC(=N)N)CC1)C(=O)c1ccc(Cl)nc1)C(C)(C)CCC2(C)C (stereo not drawn) [Compound 84] | 52 |
| Cc1cc2c(cc1CN(CC1CCC(CNC(=N)N)CC1)C(=O)C1CCCC1)C(C)(C)CCC2(C)C (stereo not drawn) [Compound 85] | 52 |
| Cc1cc2c(cc1CN(CCCCNC(=N)N)C(=O)c1ccccc1)C(C)(C)CCC2(C)C [Compound 31] | 44 |
| N=C(N)NCc1ccc(CN(CC23CC=CCC2C2CC=CCC2O3)C(=O)c2cccs2)cc1 (stereo not drawn) [Compound 6] | 47 |
| CC(C)(C)c1ccc(CN(CC2CCCC(CNC(=N)N)C2)C(=O)c2ccc3ccccc3c2)cc1 (stereo not drawn) [Compound 42] | 54 |
| COC(=O)CCCCCC(=O)N(Cc1cc2c(cc1C)C(C)(C)CCC2(C)C)CC1CCC(CNC(=N)N)CC1 (stereo not drawn) [Compound 100] | 52 |
| CC(=O)N(Cc1cc2c(cc1C)C(C)(C)CCC2(C)C)CC1CCCC(CNC(=N)N)C1 (stereo not drawn) [Compound 57] | 47 |
| N=C(N)NCC1CCCC(CN(Cc2ccc(OCc3ccccc3)c(OCc3ccccc3)c2)C(=O)c2ccc(Cl)nc2)C1 (stereo not drawn) [Compound 64] | 46 |
| Cc1cc2c(cc1CN(Cc1ccc(CNC(=N)N)cc1)C(=O)C1CCCCC1)C(C)(C)CCC2(C)C [Compound 10] | 51 |
| CC(C)(C)c1ccc(CN(CC2CCCC(CNC(=N)N)C2)C(=O)c2cccc3ccccc23)cc1 (stereo not drawn) [Compound 41] | 46 |
| Cc1cc2c(cc1CN(CCCCNC(=N)N)C(=O)C1CCCCC1)C(C)(C)CCC2(C)C [Compound 27] | 56 |
| N=C(N)NCc1cccc(CN(CC23CC=CCC2C2CC=CCC2O3)C(=O)C2CCCCC2)c1 (stereo not drawn) [Compound 37] | 59 |

Same assay, conditions: compound at 10 μM; crude compounds; 125I-GnRH-A; lower value = higher inhibition; read-out: % Remaining 2nd Test (percent of specific binding remaining)

| SMILES | remaining activity at 10 µM [%] |
| --- | --- |
| CCCCN(CCCC)c1ccc(CN(CC2CCC(CNC(=N)N)CC2)C(=O)c2ccco2)cc1 (stereo not drawn) [Compound 88] | 56 |
| N=C(N)NCCCCN(CC12CC=CCC1C1CC=CCC1O2)C(=O)c1cccc2ccccc12 (stereo not drawn) [Compound 25] | 51 |
| CN(C)CCCOc1ccc(CN(Cc2cccc(CNC(=N)N)c2)C(=O)c2ccc3ccccc3c2)cc1 [Compound 36] | 59 |
| Cc1cc2c(cc1CN(CC1CCC(CNC(=N)N)CC1)C(=O)c1ccc(Cl)nc1)C(C)(C)CCC2(C)C (stereo not drawn) [Compound 84] | 44 |
| Cc1cc2c(cc1CN(CC1CCC(CNC(=N)N)CC1)C(=O)C1CCCC1)C(C)(C)CCC2(C)C (stereo not drawn) [Compound 85] | 50 |
| Cc1cc2c(cc1CN(CCCCNC(=N)N)C(=O)c1ccccc1)C(C)(C)CCC2(C)C [Compound 31] | 45 |
| N=C(N)NCc1ccc(CN(CC23CC=CCC2C2CC=CCC2O3)C(=O)c2cccs2)cc1 (stereo not drawn) [Compound 6] | 45 |
| CC(C)(C)c1ccc(CN(CC2CCCC(CNC(=N)N)C2)C(=O)c2ccc3ccccc3c2)cc1 (stereo not drawn) [Compound 42] | 62 |
| COC(=O)CCCCCC(=O)N(Cc1cc2c(cc1C)C(C)(C)CCC2(C)C)CC1CCC(CNC(=N)N)CC1 (stereo not drawn) [Compound 100] | 58 |
| CC(=O)N(Cc1cc2c(cc1C)C(C)(C)CCC2(C)C)CC1CCCC(CNC(=N)N)C1 (stereo not drawn) [Compound 57] | 63 |
| N=C(N)NCC1CCCC(CN(Cc2ccc(OCc3ccccc3)c(OCc3ccccc3)c2)C(=O)c2ccc(Cl)nc2)C1 (stereo not drawn) [Compound 64] | 51 |
| Cc1cc2c(cc1CN(Cc1ccc(CNC(=N)N)cc1)C(=O)C1CCCCC1)C(C)(C)CCC2(C)C [Compound 10] | 54 |
| CC(C)(C)c1ccc(CN(CC2CCCC(CNC(=N)N)C2)C(=O)c2cccc3ccccc23)cc1 (stereo not drawn) [Compound 41] | 43 |
| Cc1cc2c(cc1CN(CCCCNC(=N)N)C(=O)C1CCCCC1)C(C)(C)CCC2(C)C [Compound 27] | 62 |
| N=C(N)NCc1cccc(CN(CC23CC=CCC2C2CC=CCC2O3)C(=O)C2CCCCC2)c1 (stereo not drawn) [Compound 37] | 61 |
